Reference: US8541406B2, “Thiadiazole derivatives for the treatment of neurodegenerative diseases” (NV reMYND, priority 2006, dated 2013)
pEC50: −log10 of the molar value. Entries after “also recorded” stand apart in the source; their conditions may differ.

Assays:
M17-SYNwt cells = test: α-synuclein cytotoxicity assay (LDH leakage from paraquat-treated cells); assay type: cell-based, human; conditions: for EC50: inhibition of synuclein cytotoxicity, 10 point curves in duplicate; for % I: percent inhibition of synuclein cytotoxicity, LDH release, at most effective concentration of test cmpd
Procedure: 1,2,4-thiadazole compounds made according to the methods described herein were screened for activity using the α-synuclein cytotoxicity assay as described above. Dose responses were carried out on all compounds found to be active (10 point curves in duplicate).

[1] = tested on: dopaminergic substantia nigra neurons; test: In vivo inhibition of paraquat-triggered loss of substantia nigra neurons (TH immunohistochemistry); conditions: mice, paraquat intraperitoneal, compound not higher than 20 mg/kg body weight/day, 8 weeks, versus vehicle
Procedure: In order to model neuronal loss in the substantia nigra region of the brain, mice were treated with paraquat (intraperitoneal) at a dose not higher than 8 mg/kg/day for a continuous period of 15-100 days. These mice were also chronically co-treated during that period with: • compound 60 (1-[4-methoxyphenylsulfonyl]-4-[3-(4-methylbenzyl)-1,2,4-thiadiazol-5-yl]-2-methylpiperazine), or • compound 32 (1-[4-methoxyphenylsulfonyl]-4-[3-(4-fluorobenzyl)-1,2,4-thiadiazol-5-yl]piperazine), or • compound 53 (1-[4-methoxyphenylsulfonyl]-4-[3-(3-methoxy-benzyl)-1,2,4-thiadiazol-5-yl]piperazine), each being administered at a dose not higher than 20 mg/kg body weight/day), or by vehicle only (no active compound). Mice treatment by means of vehicle or a compound of the invention started 2 days before administration of paraquat.
At the end of the treatment period, mice were sacrificed and the corresponding brains were used for immunohistochemical analysis. […] Using antibodies raised against tyrosin hydroxylase (anti-tyrosin hydroxylase), tyrosine hydroxylase containing neurons in the brains were detected.
Three groups of mice were treated with either paraquat and compound 53 (group 3; n=6), or paraquat and vehicle of compound 53 (group 2; n=4), or vehicle paraquat and vehicle of compound 53 (group 1; n=3). […] Per mouse, the median % TH-positive areas (of the substantia nigra regions) was determined. […]

[2] = Homo sapiens, paraquat-treated M17-SYNwt cells
[3] = Table 3, tested according to the procedure of example 12
[4] = paraquat-treated M17-SYNwt cells

SMILES	EC50 (M17-SYNwt cells; [2]) [µg/mL]	% I (M17-SYNwt cells; [4]) [%]	other results
Cc1ccc(Cc2nsc(N3CCN(S(=O)(=O)c4cc(Cl)ccc4Cl)C(C)C3)n2)cc1 (stereo not drawn) [Compound 36, 1-[2,5-dichlorophenylsulfonyl]-4-[3-(4-methylbenzyl)-1,2,4-thiadiazol-5-yl]-2-methylpiperazine]	0.1	–	–
O=S(=O)(c1cccs1)N1CCN(c2nc(Cc3ccc(F)cc3)ns2)CC1 [Example 50, 1-[thiophen-2-ylsulfonyl]-4-[3-(4-fluoro-benzyl)-1,2,4-thiadiazol-5-yl]piperazine]	–	–	pEC50 (M17-SYNwt cells; Homo sapiens, Table 3, tested according to the procedure of example 12): 6.33; % inh. (M17-SYNwt cells; [3]): 89%
CCCCCc1ccc(C(=O)NCCN2CCN(c3nc(Cc4ccc(F)cc4)ns3)CC2)cc1 [Compound 94, 4-pentyl-N-{2-[4-[3-(4-fluorobenzyl)-1,2,4-thiadiazol-5-yl]piperazin-1-yl]ethyl}benzamide]	–	90	–
O=S(=O)(c1ccc2ccccc2c1)N1CCN(c2nc(Cc3ccc(Cl)cc3)ns2)CC1 [Compound 52, 1-[2-naphthylsulfonyl]-4-[3-(4-chlorobenzyl)-1,2,4-thiadiazol-5-yl]piperazine]	0.1	–	–
CCCCCc1ccc(C(=O)N2CCN(c3nc(Cc4ccc(C)cc4)ns3)CC2C)cc1 (stereo not drawn) [Compound 134, 1-(4-pentylbenzoyl)-4-[3-(4-methylbenzyl)-1,2,4-thiadiazol-5-yl]-2-methylpiperazine]	0.3	–	–
CCOc1ccc(NC(=O)N2CCN(c3nc(Cc4ccc(F)cc4)ns3)CC2C)cc1 (stereo not drawn) [Compound 14, N-(4-ethoxyphenyl)-4-[3-(4-fluorobenzyl)-1,2,4-thiadiazol-5-yl]-2-methylpiperazine-1-carboxamide]	–	70	–
CC1CN(c2nc(Cc3ccc(F)cc3)ns2)CCN1C(=O)Nc1ccc(F)c(F)c1 (stereo not drawn) [Compound 26, N-(3,4-difluorophenyl)-4-[3-(4-fluorobenzyl)-1,2,4-thiadiazol-5-yl]-2-methylpiperazine-1-carboxamide]	–	70	–
CCC(=O)Oc1ccc(S(=O)(=O)N2CCN(c3nc(Cc4ccc(F)cc4)ns3)CC2)cc1 [Compound 200, 1-(4-propionyloxy)benzene-sulfonyl-4-[3-(4-fluoro-benzyl)-1,2,4-thiadiazol-5-yl]piperazine]	–	80	–
CC1CN(c2nc(Cc3ccc(F)cc3)ns2)CCN1S(=O)(=O)c1ccc(C(C)(C)C)cc1 (stereo not drawn) [Compound 54, 1-[4-tert-butylphenylsulfonyl]-4-[3-(4-fluorobenzyl)-1,2,4-thiadiazol-5-yl]-2-methylpiperazine]	–	60	–
Cc1ccc(Cc2nsc(N3CCN(C/C=C/c4ccccc4)CC3)n2)cc1 [Compound 91, 1-[3-phenylprop-2-enyl]-4-[3-(4-methylbenzyl)-1,2,4-thiadiazol-5-yl]piperazine]	–	90	–
COc1ccc(S(=O)(=O)N2CCN(c3nc(Cc4cccc(OC)c4)ns3)CC2)cc1 [Compound 53, 1-[4-methoxyphenylsulfonyl]-4-[3-(3-methoxybenzyl)-1,2,4-thiadiazol-5-yl]piperazine]	0.00066	–	protection of TH-positive substantia nigra area against paraquat-triggered degeneration [1]: inhibition of paraquat-triggered degeneration of substantia nigra cells; also recorded: protects dopaminergic substantia nigra neurons against paraquat-triggered degeneration
CC1CN(c2nc(Cc3ccc(F)cc3)ns2)CCN1C(=O)c1cccc(Br)c1 (stereo not drawn) [Compound 142, 1-(3-bromobenzoyl)-4-[3-(4-fluorobenzyl)-1,2,4-thiadiazol-5-yl]-2-methylpiperazine]	0.5	–	–
CCCCCCCCS(=O)(=O)N1CCN(c2nc(Cc3ccc(C)cc3)ns2)CC1 [Compound 82, 1-(octylsulfonyl)-4-[3-(4-methylbenzyl)-1,2,4-thiadiazol-5-yl]piperazine]	–	50	–
O=S(=O)(c1ccc(O)cc1)N1CCN(c2nc(Cc3ccc(F)cc3)ns2)CC1 [Compound 217, 1-(4-hydroxybenzenesulfonyl)-4-[3-(4-fluoro-benzyl)-1,2,4-thiadiazol-5-yl]piperazine]	0.033	–	–
O=C(c1ccccc1)N1CCN(c2nc(Cc3ccc(F)cc3)ns2)CC1 [Compound 181, 1-benzoyl-4-[3-(4-fluorobenzyl)-1,2,4-thiadiazol-5-yl]piperazine]	–	60	–
CC1CN(c2nc(Cc3ccc(F)cc3)ns2)CCN1C(=O)c1cccc(C(F)(F)F)c1 (stereo not drawn) [Compound 145, 1-(3-trifluoromethylbenzoyl)-4-[3-(4-fluorobenzyl)-1,2,4-thiadiazol-5-yl]-2-methylpiperazine]	–	60	–

SMILES	EC50 (M17-SYNwt cells; [2]) [µg/mL]	% I (M17-SYNwt cells; [4]) [%]	other results
CCCCCCc1ccc(C(=O)NCCN2CCN(c3nc(Cc4ccc(F)cc4)ns3)CC2)cc1 [Compound 96, 4-hexyl-N-{2-[4-[3-(4-fluorobenzyl)-1,2,4-thiadiazol-5-yl]piperazin-1-yl]ethyl}benzamide]	0.8	–	–
CC1CN(c2nc(Cc3ccc(F)cc3)ns2)CCN1C(=O)CCc1ccccc1 (stereo not drawn) [Compound 89, 1-(3-phenylpropanoyl)-4-[3-(4-fluorobenzyl)-1,2,4-thiadiazol-5-yl]-2-methylpiperazine]	0.6	–	–
Cc1ccc(C(=O)N2CCN(c3nc(Cc4ccc(F)cc4)ns3)CC2C)cc1 (stereo not drawn) [Compound 139, 1-(4-methylbenzoyl)-4-[3-(4-fluorobenzyl)-1,2,4-thiadiazol-5-yl]-2-methylpiperazine]	0.4	–	–
O=C(c1cccc(F)c1)N1CCN(c2nc(Cc3ccc(Cl)cc3)ns2)CC1 [Compound 157, 1-(3-fluorobenzoyl)-4-[3-(4-chlorobenzyl)-1,2,4-thiadiazol-5-yl]piperazine]	–	70	–
CCCCS(=O)(=O)N1CCN(c2nc(Cc3ccc(Cl)cc3)ns2)CC1 [Compound 81, 1-(butylsulfonyl)-4-[3-(4-chlorobenzyl)-1,2,4-thiadiazol-5-yl]piperazine]	–	80	–
O=C(NCCN1CCN(c2nc(Cc3ccc(F)cc3)ns2)CC1)c1ccc(F)cc1 [Compound 102, 4-fluoro-N-{2-[4-[3-(4-fluorobenzyl)-1,2,4-thiadiazol-5-yl]piperazin-1-yl]ethyl}benzamide]	–	80	–
Cc1cccc(C)c1NC(=O)N1CCN(c2nc(Cc3ccc(F)cc3)ns2)CC1C (stereo not drawn) [Compound 19, N-(2,6-dimethylphenyl)-4-[3-(4-fluorobenzyl)-1,2,4-thiadiazol-5-yl]-2-methylpiperazine-1-carboxamide]	0.2	–	reduction of LDH activity in the medium (inhibition of α-synuclein mediated toxicity), FIG. 2 (M17-SYNwt cells; paraquat-treated M17-SYNwt cells, dose response): inhibition of α-synuclein mediated toxicity; also recorded: able, in a dose-dependent manner, to reduce LDH activity in the medium
CC1CN(c2nc(Cc3ccc(F)cc3)ns2)CCN1S(=O)(=O)c1cccc(C(F)(F)F)c1 (stereo not drawn) [Compound 46, 1-[3-trifluorophenylsulfonyl]-4-[3-(4-fluorobenzyl)-1,2,4-thiadiazol-5-yl]-2-methylpiperazine]	1.34	64	–
Cc1ccccc1NC(=O)N1CCN(c2nc(Cc3ccc(F)cc3)ns2)CC1C (stereo not drawn) [Compound 10, N-(2-methylphenyl)-4-[3-(4-fluorobenzyl)-1,2,4-thiadiazol-5-yl]-2-methylpiperazine-1-carboxamide]	0.6	–	–
O=C(Cc1ccc(F)cc1)NCCN1CCN(c2nc(Cc3ccc(F)cc3)ns2)CC1 [Compound 107, 2-(4-fluorophenyl)-N-{2-[4-[3-(4-fluorobenzyl)-1,2,4-thiadiazol-5-yl]piperazin-1-yl]ethyl}acetamide]	–	80	–
Cc1ccc(Cc2nsc(N3CCN(C(=O)c4ccc(Br)cc4)CC3)n2)cc1 [Compound 164, 1-(4-bromobenzoyl)-4-[3-(4-methylbenzyl)-1,2,4-thiadiazol-5-yl]piperazine]	–	60	–
CC(C)(C)c1ccc(S(=O)(=O)N2CCN(c3nc(Cc4ccc(F)cc4)ns3)CC2)cc1 [Compound 61, 1-[4-ter-butylphenylsulfonyl]-4-[3-(4-fluorobenzyl)-1,2,4-thiadiazol-5-yl]piperazine]	–	47	–
COc1ccc(S(=O)(=O)N2CCN(c3nc(Cc4ccc(F)c(C)c4)ns3)CC2)cc1 [Compound 204]	0.001	90	–
COc1ccc(S(=O)(=O)N2CCN(c3nc(Cc4cccc(OC)c4)ns3)CC2C)cc1 (stereo not drawn) [Compound 208, 1-[4-methoxyphenylsulfonyl]-4-[3-(3-methoxybenzyl)-1,2,4-thia-diazol-5-yl]-2-methyl-piperazine]	–	–	% inh. (M17-SYNwt cells; [3]): 92%
O=S(=O)(Cc1ccccc1)N1CCN(c2nc(Cc3ccc(Cl)cc3)ns2)CC1 [Compound 76, 1-(benzylsulfonyl)-4-[3-(4-chlorobenzyl)-1,2,4-thiadiazol-5-yl]piperazine]	–	40	–
